Assays:
[1] = in vivo; cited from earlier work
adipocytes = assay: assays of this invention (lipolysis, adipocyte differentiation, de-differentiation); format: cell-based, mouse
Experimental: Assay 1. Lipolysis Assay.
In this assay, pre-adipocyte cells are seeded in 96-well plates and are induced to convert to adipocytes over the course of a 10–15 day treament with lipolytic reagents. After cells have converted to adipocytes, the cells are starved, and then subsequently treated with or exposed to test compounds or mixtures of compounds or extracts of plants or fractionated extracts of plants. The adipocytes are treated with test compounds in the presence of a surrounding cell medium. Over the course of 1 to 3 hours after exposure to the test compounds or mixture of compounds, the amount of glycerol present in the cell medium is measured. Glycerol and fatty acids are hydrolysis products of triglycerides, and glycerol is released from cells after enzymatic hydrolysis or breakdown of lipids.
Assay 2. […]
In this assay pre-adipocyte cells require 10 to 15 days to differentiate into adipocytes. […] After cells have undergone the 10–15 days required to differentiate, cells are assessed for GPDH activity. […]
This assay comprises a colorimetric assay to screen for compounds and mixtures of compounds that induce the differentiation of adipocytes to preadipocytes. The presence of such compounds is determined by measuring the relative levels of the enzyme GPDH. […] GPDH levels present in the cells are measured to determine if the cells still express the adipocyte phenotype. […]

3T3-L1 preadipocytes = assay: adipocyte differentiation blocking assay (GPDH level in cell lysates); format: cell-based, mouse; settings: after 10-fold dilution (FIG. 6)
Excerpt: The adipocyte differentiation blocking assay is an enzyme assay that examines the ability of compounds to block differentiation of preadipocytes to adipocytes by quantifying the level of GPDH in cell lysates (inhibition of adipogenesis). Based on preliminary results using this assay, we selected two plant extracts (designated as PM765, and as PM902, respectively) and collected eluant fractions isolated by HPLC, the extracts being divided into 40 or 120 fractions in collection wells (collected at 30 second or 1 minute HPLC eluant flow time intervals) (FIG. 3). […] MDI treatment is defined as Differentiation media causes the 3T3-L1 preadipocytes (fibroblast cells) to differentiate into adipocytes (fat cells). Differentiation media is composed of: • Per 100 ml of differentiation media • 90 mL DMEM media • 10 mL FCS • 1% pen/strep • 1 ml methylisobutylxanthine (stock 11.5 mg/mL) • 100 ul dexamethasone (stock 0.4 mg/mL) • 1 ml insulin (stock 1 mg/mL)
Inhibition of adipocyte differentiation is assayed by measuring the levels of the enzyme glycerol-3-phosphate dehydrogenase (GPDH). […]
In this assay pre-adipocyte cells require 10 to 15 days to differentiate into adipocytes. […] After cells have undergone the 10–15 days required to differentiate, cells are assessed for GPDH activity.
Results are expressed as a percentage of the untreated control average. […]

3T3-L1 cells = settings: GPDH activity, oil red O staining; cited from earlier work
leptin = settings: cited from earlier work

| Compound | decrease of the amount of fat absorbed from the diet [1] | activity in the assays of this invention (adipocytes) | blocking of adipocyte differentiation, as a percent of positive control (3T3-L1 preadipocytes) | differentiation of preadipocytes (3T3-L1 cells) | effect on leptin levels (leptin) |
| --- | --- | --- | --- | --- | --- |
| CCCCCCCCCCC[C@@H](C[C@@H]1OC(=O)[C@H]1CCCCCC)OC(=O)[C@H](CC(C)C)NC=O [Orlistat] | about 30% |  |  |  |  |
| CC1(C)CCC[C@]2(C)[C@H]3CC(=O)O[C@]3(C)CC[C@@H]12 [sclareolide, 3aR-[3a-alpha, 5a-beta, 9a-alpha, 9b-alpha]-decahydro-3a,6,6,9a-tetramethylnaphtho[2,1-b]furane-2(1H)-one] |  | active | blocking of adipocyte differentiation |  |  |
| C=C[C@](C)(O)CC[C@@H]1[C@@]2(C)CCCC(C)(C)[C@@H]2CC[C@@]1(C)O [sclareol, labdane-14-ene-8,13-diol] |  | active | blocking of adipocyte differentiation |  |  |
| myostatin: adipocyte blocking agent, inhibitor of skeletal muscle growth, member of the TGF-β superfamily |  |  |  | inhibits differentiation of preadipocytes | no effect |
